From patent US20040044006A1, “Methods of use of quinolone compounds against pneumococcal and haemophilus bacteria” (priority 1999, published 2004)
Values after ≈ are worked out from the molar mass of the structure shown. Read-outs that look alike come from different tables or passages of the source.

Experiments:
[1] = system: quinolone susceptible pneumococci (ciprofloxacin MICs ≦4.0 μg/ml); test: Agar dilution MICs of 207 quinolone susceptible pneumococcal strains; assay type: cell-based, Streptococcus pneumoniae; conditions: Streptococcus pneumoniae, agar dilution; for MIC90: read-out: MIC90; for MIC: read-out: MIC range
Method in brief: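 Agar dilution MICs by prior methods on Mueller-Hinton agar with 5% sheep blood; S. pneumoniae ATCC 49619 among QC strains each run. Isolates were recent U.S. strains plus some from South Africa, Europe and Korea.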

pneumococcal strains = test: Microbroth dilution MICs of strains tested by time-kill and PAE; assay type: cell-based; conditions: Streptococcus pneumoniae, read-out: Microdilution MIC
Method in brief: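 S. pneumoniae ATCC 49619 served as control in each run. For the 12 time-kill and 6 PAE strains, MICs came from NCCLS microbroth dilution using cation-adjusted Mueller-Hinton broth plus 5% lysed defibrinated horse blood.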

[2] = system: quinolone-resistant Haemophilus influenzae strains; test: Microdilution MIC determination in HTM for quinolone-resistant Haemophilus influenzae strains; assay type: cell-based; conditions: 9 quinolone-resistant Haemophilus influenzae strains
Method in brief: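 Broth microdilution in HTM, inoculum from 24 h chocolate agar colonies by direct suspension to a final 3-8×10^5 CFU/ml. Incubated in ambient air at 35° C. for 20-24 hours; MIC read as the lowest concentration with no growth.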

[3] = system: quinolone resistant pneumococci; test: Determination of efflux mechanism: MICs in the presence and absence of reserpine; assay type: cell-based, Streptococcus pneumoniae; conditions: for lower MICs in the presence of reserpine, fold range over affected strains: 28 quinolone resistant strains; for lower MICs in the presence of reserpine, fold range over affected strains / number of strains with lower MICs in the presence of reserpine / lower MIC in the presence of reserpine (efflux mechanism): 10 μg/ml reserpine; for number of strains with lower MICs in the presence of reserpine: of 28 quinolone resistant strains
Protocol: MICs were determined in the presence and absence of 10 μg/ml of reserpine (Sigma Chemicals, St. Louis, Mo.) as known in the art.
MICs were determined in the presence and absence of […] of reserpine (Sigma Chemicals, St. Louis, Mo., USA) as described previously (Brenwald, et al., Antimicrob. Agents Chemother. 42:2039-2035, 1998 and Davies, et al., Antimicrob. Agents Chemother. 43:1177-1182S, 1999).

[4] = system: pneumococci (5 quinolone susceptible and 1 resistant strains); test: Post-antibiotic effect (PAE) testing; assay type: cell-based, Streptococcus pneumoniae
Method in brief: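 Pneumococci (~5×10^6 cfu/ml) in MHB with 5% lysed horse blood were exposed 1 h at 35 °C, the quinolone-resistant strain at 5×MIC, then diluted 1:1000. Viable counts every 2 h until McFarland #1 turbidity. PAE = T − C, the 1 log10 regrowth time versus untreated control; mean of two assays ±SD.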

[5] = all 207 strains (64 penicillin susceptible, 68 intermediate, 75 resistant)
[6] = strain 1 (S) penicillin susceptible
[7] = strain 2 (S) penicillin susceptible
[8] = strain 3 (S) penicillin susceptible, quinolone-resistant
[9] = strain 4 (S) penicillin susceptible, quinolone-resistant
[10] = strain 5 (I) penicillin intermediate
[11] = strain 6 (I) penicillin intermediate
[12] = strain 7 (I) penicillin intermediate
[13] = strain 8 (I) penicillin intermediate
[14] = strain 9 (R) penicillin resistant
[15] = strain 11 (R) penicillin resistant
[16] = strain 12 (R) penicillin resistant
[17] = 5×MIC, quinolone resistant strain
[18] = 10×MIC for 1 h, range over 5 quinolone susceptible strains

SMILES	MIC50 ([1]; Penicillin I strains) [µg/mL]	MIC90 ([1]; Penicillin I strains) [µg/mL]	MIC ([1]; Penicillin I strains) [µg/mL]	MIC50 ([1]; Penicillin R strains) [µg/mL]	MIC90 ([1]; Penicillin R strains) [µg/mL]	MIC ([1]; Penicillin R strains) [µg/mL]	MIC50 ([1]; Penicillin S strains) [µg/mL]	MIC90 ([1]; Penicillin S strains) [µg/mL]	MIC ([1]; Penicillin S strains) [µg/mL]	MIC50 [1, 5] [µg/mL]	MIC90 [1, 5] [µg/mL]	MIC (pneumococcal strains; [6]) [µg/mL]	MIC (pneumococcal strains; [7]) [µg/mL]	MIC (pneumococcal strains; [8]) [µg/mL]	MIC (pneumococcal strains; [9]) [µg/mL]	MIC (pneumococcal strains; [10]) [µg/mL]	MIC (pneumococcal strains; [11]) [µg/mL]	MIC (pneumococcal strains; [12]) [µg/mL]	MIC (pneumococcal strains; [13]) [µg/mL]	MIC (pneumococcal strains; [14]) [µg/mL]	also measured
Cc1c(F)c(N2CCNC(C)C2)cc2c1c(=O)c(C(=O)O)cn2C1CC1 (stereo not drawn) [Grepafloxacin, grepafloxacin]	0.125 (≈ 0.348 µM)	0.5 (≈ 1.39 µM)	0.03 to 0.5 (≈ 0.0835 to 1.39 µM)	0.25 (≈ 0.696 µM)	0.5 (≈ 1.39 µM)	0.03 to 0.5 (≈ 0.0835 to 1.39 µM)	0.125 (≈ 0.348 µM)	0.5 (≈ 1.39 µM)	0.03 to 1 (≈ 0.0835 to 2.78 µM)	0.125 (≈ 0.348 µM)	0.5 (≈ 1.39 µM)	0.06 (≈ 0.167 µM)	0.06 (≈ 0.167 µM)	16 (≈ 44.5 µM)	8 (≈ 22.3 µM)	0.125 (≈ 0.348 µM)	0.125 (≈ 0.348 µM)	0.125 (≈ 0.348 µM)	0.125 (≈ 0.348 µM)	0.25 (≈ 0.696 µM)	MIC (pneumococcal strains; strain 10 (I)): 0.125 µg/mL (≈ 0.348 µM); MIC (pneumococcal strains; [15]): 0.125 µg/mL (≈ 0.348 µM); MIC (pneumococcal strains; [16]): 0.25 µg/mL (≈ 0.696 µM); MIC50 [2]: 1 µg/mL (≈ 2.78 µM); MIC Range [2]: 0.25 to 4.0 µg/mL; lower MICs in the presence of reserpine, fold range over affected strains [3]: 2 ×; number of strains with lower MICs in the presence of reserpine [3]: 3 strains; Number of dilutions decrease after incubation with reserpine ([3]; strain 5): 2X; lower MIC in the presence of reserpine (efflux mechanism) ([3]; strain 5): 2X; Number of dilutions decrease after incubation with reserpine ([3]; strain 12): 2X; lower MIC in the presence of reserpine (efflux mechanism) ([3]; strain 12): 2X; Number of dilutions decrease after incubation with reserpine ([3]; strain 28): 2X; lower MIC in the presence of reserpine (efflux mechanism) ([3]; strain 28): 2X; PAE [4, 17]: 1.5 h; PAE [4, 18]: 0.3 to 2.6 h
C[C@@H]1CN(c2c(F)c(N)c3c(=O)c(C(=O)O)cn(C4CC4)c3c2F)C[C@H](C)N1 [Sparfloxacin, sparfloxacin]	0.5 (≈ 1.27 µM)	0.5 (≈ 1.27 µM)	0.06 to 2 (≈ 0.153 to 5.1 µM)	0.5 (≈ 1.27 µM)	0.5 (≈ 1.27 µM)	0.06 to 1 (≈ 0.153 to 2.55 µM)	0.5 (≈ 1.27 µM)	1 (≈ 2.55 µM)	0.03 to 1 (≈ 0.0765 to 2.55 µM)	0.5 (≈ 1.27 µM)	0.5 (≈ 1.27 µM)	0.125 (≈ 0.319 µM)	0.25 (≈ 0.637 µM)	32 (≈ 81.5 µM)	16 (≈ 40.8 µM)	0.5 (≈ 1.27 µM)	0.25 (≈ 0.637 µM)	0.25 (≈ 0.637 µM)	0.25 (≈ 0.637 µM)	0.5 (≈ 1.27 µM)	MIC (pneumococcal strains; strain 10 (I)): 0.25 µg/mL (≈ 0.637 µM); MIC (pneumococcal strains; [15]): 0.25 µg/mL (≈ 0.637 µM); MIC (pneumococcal strains; [16]): 0.5 µg/mL (≈ 1.27 µM); MIC50 [2]: 1 µg/mL (≈ 2.55 µM); MIC Range [2]: 0.25 to 8.0 µg/mL; lower MICs in the presence of reserpine, fold range over affected strains [3]: 2 ×; number of strains with lower MICs in the presence of reserpine [3]: one; Number of dilutions decrease after incubation with reserpine ([3]; strain 5): 2X; lower MIC in the presence of reserpine (efflux mechanism) ([3]; strain 5): 2X; PAE [4, 17]: 1.5 h; PAE [4, 18]: 0.3 to 2.0 h
